Measured values reported in publication PMC10387993, “New pyrimidine-N-β-D-glucosides: synthesis, biological evaluation, and molecular docking investigations” (Turkish Journal of Chemistry, 2023).
≈ marks a conversion by molar mass, not a printed value. Read-outs that look alike come from different tables or passages of the source.

Columns and labels:
Assay type in all cases: cell-based
[1] = system: S. aureus MSSA ATCC 29213; assay: Microdilution MIC assay; conditions: S. aureus MSSA ATCC 29213, 24 h at 35 °C
Outline: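 Compounds were serially diluted in microwells and inoculated with each strain. After 24 h incubation at 35 °C, growth was scored visually. The MIC was the lowest concentration showing no turbidity.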

[2] = LDH cytotoxic activity assay, MCF7; conditions: human, MCF7 cells; for cytotoxicity at 24 h, 25 μg/mL: MCF7, 25 μg/mL; for cytotoxicity at 24 h, 50 μg/mL: MCF7, 50 μg/mL; for cytotoxicity at 24 h, 75 μg/mL: MCF7, 75 μg/mL
Procedure: (§1) The cell lines were cultured in a cell medium (Dulbecco’s modified eagle’s or RPMI 1640) enriched with 10% (v/v) fetal bovine serum and 2% (v/v) Penicillin-Streptomycin (10,000 U/mL). First, old medium was removed out of the flask when the cells reached approximately 80% confluence. Next, cells were taken from the flasks surface using trypsin-EDTA solution and then subjected to centrifugation. Following, the cell pellet was suspended with fresh media and was inoculated into wells.
(§2) Approximately 5 × 10^3 cells in 100 μL were placed into 96-well plates as triplicates and treated with 25, 50, 75, and 100 μg/mL concentrations of test compounds at 37 °C with 5% CO2 for 24 h. LDH activity was obtained by determining absorbance at 492–630 nm using a microplate reader.

[3] = LDH cytotoxic activity assay, FL; conditions: human, FL cells (normal cells)
Procedure: as §1, §2

[4] = LDH cytotoxic activity assay, A549; conditions: human, A549 cells; for cytotoxicity at 24 h, 25 μg/mL: A549, 25 μg/mL; for cytotoxicity at 24 h, 50 μg/mL: A549, 50 μg/mL; for cytotoxicity at 24 h, 75 μg/mL: A549, 75 μg/mL; for cytotoxicity at 24 h, 100 μg/mL: A549, 100 μg/mL
Procedure: as §1, §2

[5] = LDH cytotoxic activity assay, Hep3B; conditions: human, Hep3B cells
Procedure: as §1, §2

[6] = LDH cytotoxic activity assay, HT29; conditions: human, HT29 cells; for cytotoxicity at 24 h, 25 μg/mL: HT29, 25 μg/mL; for cytotoxicity at 24 h, 50 μg/mL: HT29, 50 μg/mL; for cytotoxicity at 24 h, 75 μg/mL: HT29, 75 μg/mL; for cytotoxicity at 24 h, 100 μg/mL: HT29, 100 μg/mL
Outline: (§3)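 LDH release, A492–630 nm; ~5 × 10^3 cells/well, triplicate; cpd 25/50/75/100 μg/mL, 24 h, 37 °C, 5% CO2; DMEM or RPMI 1640 + 10% FBS.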

[7] = LDH cytotoxic activity assay, C6; conditions: rat, C6 glioma cells; for cytotoxicity at 24 h, 25 μg/mL: C6, 25 μg/mL; for cytotoxicity at 24 h, 50 μg/mL: C6, 50 μg/mL; for cytotoxicity at 24 h, 75 μg/mL: C6, 75 μg/mL; for cytotoxicity at 24 h, 100 μg/mL: C6, 100 μg/mL
Outline: as §3

[8] = system: normal FL cells; assay: cells; conditions: FL normal cells, MTT; for IC50: read-out: IC50; for IC (total growth inhibition): read-out: TGI
Outline: (§4)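 Proliferation was measured with the MTT method on cells grown in serum-supplemented DMEM or RPMI 1640 and seeded near 1 × 10^4 per well. Growth parameters GI50, TGI and LC50 were computed from absorbances at time zero, in control growth and under drug.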

[9] = in vitro; conditions: human, LC50
Outline: as §4

[10] = Staphylococcus aureus, 24 h, read-out: MIC
[11] = as the column head prints, head prints FL

## Cc1cccc(-c2cc(-c3cccnc3)nc(N[C@@H]3O[C@H](CO)[C@@H](O)[C@H](O)[C@H]3O)n2)c1 [Compound 5, N-[4-(3-methylphenyl)-6-pyridin-3-ylpyrimidin-2-yl]-β-D-glucopyranosylamine]
[1]
  MIC: 125 mg/L (≈ 294 µM)
[1]; [10]
  MIC: 62.5 to 125 mg/L (≈ 147 to 294 µM)
[2]
  cytotoxicity at 24 h, 25 μg/mL: 8.23%
  cytotoxicity at 24 h, 50 μg/mL: 12.2%
  cytotoxicity at 24 h, 75 μg/mL: 24.9%
[3]; FL
  cytotoxicity at 24 h, 25 μg/mL: 16.6%
  cytotoxicity at 24 h, 50 μg/mL: 32.9%
  cytotoxicity at 24 h, 75 μg/mL: 62.6%
  cytotoxicity at 24 h, 100 μg/mL: 76.8%
[3]; [11]
  cytotoxicity at 24 h, 100 μg/mL: 36.4%
[4]
  cytotoxicity at 24 h, 25 μg/mL: 24.4%
  cytotoxicity at 24 h, 50 μg/mL: 31.3%
  cytotoxicity at 24 h, 75 μg/mL: 51.5%
  cytotoxicity at 24 h, 100 μg/mL: 66.3%
[5]
  cytotoxicity at 24 h, 25 μg/mL: 14.1%
  cytotoxicity at 24 h, 50 μg/mL: 25.5%
  cytotoxicity at 24 h, 75 μg/mL: 42.8%
  cytotoxicity at 24 h, 100 μg/mL: 52.5%
[6]
  cytotoxicity at 24 h, 25 μg/mL: 24.6%
  cytotoxicity at 24 h, 50 μg/mL: 39.4%
  cytotoxicity at 24 h, 75 μg/mL: 75.9%
  cytotoxicity at 24 h, 100 μg/mL: 96.8%
[7]
  cytotoxicity at 24 h, 25 μg/mL: 26.9%
  cytotoxicity at 24 h, 50 μg/mL: 44.1%
  cytotoxicity at 24 h, 75 μg/mL: 62.6%
  cytotoxicity at 24 h, 100 μg/mL: 87.1%
[8]
  GI50: 4.16 mg/L (≈ 9.8 µM)
  IC50: 25.3 mg/L (≈ 59.7 µM)
  IC (total growth inhibition): 25.8 µg/mL
[9]
  LC50 (concentration causing 50% net cell loss): > 500 mg/L

## Cc1cccc(-c2cc(-c3ccccn3)nc(N[C@@H]3O[C@H](CO)[C@@H](O)[C@H](O)[C@H]3O)n2)c1 [Compound 4, N-[4-(3-methylphenyl)-6-pyridin-2-ylpyrimidin-2-yl]-β-D-glucopyranosylamine]
[1]; [10]
  MIC: 250 mg/L (≈ 589 µM)
[2]
  cytotoxicity at 24 h, 25 μg/mL: 11.6%
  cytotoxicity at 24 h, 50 μg/mL: 22.5%
  cytotoxicity at 24 h, 75 μg/mL: 30%
[3]; FL
  cytotoxicity at 24 h, 25 μg/mL: 24.4%
  cytotoxicity at 24 h, 50 μg/mL: 32.4%
  cytotoxicity at 24 h, 75 μg/mL: 48.3%
  cytotoxicity at 24 h, 100 μg/mL: 69.5%
[3]; [11]
  cytotoxicity at 24 h, 100 μg/mL: 40.2%
[4]
  cytotoxicity at 24 h, 25 μg/mL: 26%
  cytotoxicity at 24 h, 50 μg/mL: 33.2%
  cytotoxicity at 24 h, 75 μg/mL: 61.7%
  cytotoxicity at 24 h, 100 μg/mL: 72.5%
[5]
  cytotoxicity at 24 h, 25 μg/mL: 19.6%
  cytotoxicity at 24 h, 50 μg/mL: 28.9%
  cytotoxicity at 24 h, 75 μg/mL: 42%
  cytotoxicity at 24 h, 100 μg/mL: 64.8%
[6]
  cytotoxicity at 24 h, 25 μg/mL: 28.2%
  cytotoxicity at 24 h, 50 μg/mL: 35.7%
  cytotoxicity at 24 h, 75 μg/mL: 62.6%
  cytotoxicity at 24 h, 100 μg/mL: 74.9%
[7]
  cytotoxicity at 24 h, 25 μg/mL: 22.1%
  cytotoxicity at 24 h, 50 μg/mL: 49.3%
  cytotoxicity at 24 h, 75 μg/mL: 68.9%
  cytotoxicity at 24 h, 100 μg/mL: 89.2%
[8]
  GI50: 6.77 mg/L (≈ 15.9 µM)
  IC50: 78.1 mg/L (≈ 184 µM)
  IC (total growth inhibition): 79.8 µg/mL
[9]
  LC50 (concentration causing 50% net cell loss): > 500 mg/L

## Cc1ccc(-c2cc(-c3ccncc3)nc(N[C@@H]3O[C@H](CO)[C@@H](O)[C@H](O)[C@H]3O)n2)cc1 [Compound 9, N-[4-(4-methylphenyl)-6-pyridin-4-ylpyrimidin-2-yl]-β-D-glucopyranosylamine]
[1]
  MIC: 125 mg/L (≈ 294 µM)
[1]; [10]
  MIC: 62.5 to 125 mg/L (≈ 147 to 294 µM)
[2]
  cytotoxicity at 24 h, 25 μg/mL: 11.1%
  cytotoxicity at 24 h, 50 μg/mL: 19.2%
  cytotoxicity at 24 h, 75 μg/mL: 27.5%
[3]; FL
  cytotoxicity at 24 h, 25 μg/mL: 18.6%
  cytotoxicity at 24 h, 50 μg/mL: 30%
  cytotoxicity at 24 h, 75 μg/mL: 60.6%
  cytotoxicity at 24 h, 100 μg/mL: 71%
[3]; [11]
  cytotoxicity at 24 h, 100 μg/mL: 36.5%
[4]
  cytotoxicity at 24 h, 25 μg/mL: 27.4%
  cytotoxicity at 24 h, 50 μg/mL: 28.5%
  cytotoxicity at 24 h, 75 μg/mL: 48.4%
  cytotoxicity at 24 h, 100 μg/mL: 63.2%
[5]
  cytotoxicity at 24 h, 25 μg/mL: 16.5%
  cytotoxicity at 24 h, 50 μg/mL: 24.4%
  cytotoxicity at 24 h, 75 μg/mL: 41.5%
  cytotoxicity at 24 h, 100 μg/mL: 49.4%
[6]
  cytotoxicity at 24 h, 25 μg/mL: 25.7%
  cytotoxicity at 24 h, 50 μg/mL: 40.9%
  cytotoxicity at 24 h, 75 μg/mL: 74.7%
  cytotoxicity at 24 h, 100 μg/mL: 81.8%
[7]
  cytotoxicity at 24 h, 25 μg/mL: 28.4%
  cytotoxicity at 24 h, 50 μg/mL: 34.1%
  cytotoxicity at 24 h, 75 μg/mL: 70.2%
  cytotoxicity at 24 h, 100 μg/mL: 90.6%
[8]
  GI50: 7.04 mg/L (≈ 16.6 µM)
  IC50: > 500 mg/L
  IC (total growth inhibition): > 500 µg/mL
[9]
  LC50 (concentration causing 50% net cell loss): > 500 mg/L

## Cc1cccc(-c2cc(-c3ccncc3)nc(N[C@@H]3O[C@H](CO)[C@@H](O)[C@H](O)[C@H]3O)n2)c1 [Compound 6, N-[4-(3-methylphenyl)-6-pyridin-4-ylpyrimidin-2-yl]-β-D-glucopyranosylamine]
[1]
  MIC: 125 mg/L (≈ 294 µM)
[1]; [10]
  MIC: 62.5 to 125 mg/L (≈ 147 to 294 µM)
[2]
  cytotoxicity at 24 h, 25 μg/mL: 7.22%
  cytotoxicity at 24 h, 50 μg/mL: 12.5%
  cytotoxicity at 24 h, 75 μg/mL: 31.8%
[3]; FL
  cytotoxicity at 24 h, 25 μg/mL: 19.1%
  cytotoxicity at 24 h, 50 μg/mL: 27.6%
  cytotoxicity at 24 h, 75 μg/mL: 50.9%
  cytotoxicity at 24 h, 100 μg/mL: 63.4%
[3]; [11]
  cytotoxicity at 24 h, 100 μg/mL: 41.9%
[4]
  cytotoxicity at 24 h, 25 μg/mL: 27%
  cytotoxicity at 24 h, 50 μg/mL: 32%
  cytotoxicity at 24 h, 75 μg/mL: 48.1%
  cytotoxicity at 24 h, 100 μg/mL: 72.8%
[5]
  cytotoxicity at 24 h, 25 μg/mL: 10%
  cytotoxicity at 24 h, 50 μg/mL: 15.4%
  cytotoxicity at 24 h, 75 μg/mL: 35.9%
  cytotoxicity at 24 h, 100 μg/mL: 41.1%
[6]
  cytotoxicity at 24 h, 25 μg/mL: 24.8%
  cytotoxicity at 24 h, 50 μg/mL: 34.5%
  cytotoxicity at 24 h, 75 μg/mL: 68.9%
  cytotoxicity at 24 h, 100 μg/mL: 85.6%
[7]
  cytotoxicity at 24 h, 25 μg/mL: 27.9%
  cytotoxicity at 24 h, 50 μg/mL: 38.2%
  cytotoxicity at 24 h, 75 μg/mL: 63.1%
  cytotoxicity at 24 h, 100 μg/mL: 84.9%
[8]
  GI50: 8.04 mg/L (≈ 18.9 µM)
  IC50: > 500 mg/L
  IC (total growth inhibition): > 500 µg/mL
[9]
  LC50 (concentration causing 50% net cell loss): > 500 mg/L
